The target of one test is T1, Uch-L3 (Homo sapiens, UniProt P15374).
T1 sequence (P15374 1-230): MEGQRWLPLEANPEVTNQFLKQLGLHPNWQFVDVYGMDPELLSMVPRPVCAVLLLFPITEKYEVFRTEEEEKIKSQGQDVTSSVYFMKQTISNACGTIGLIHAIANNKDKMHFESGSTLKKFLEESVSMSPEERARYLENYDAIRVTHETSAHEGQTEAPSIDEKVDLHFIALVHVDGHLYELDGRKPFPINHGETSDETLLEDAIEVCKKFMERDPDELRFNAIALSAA
Nature of the test: UCH-L3 Activity Assay. The class given is biochemical. The conditions noted are these: 400 nM Ub-AMC; 13 pM enzyme; pre-incubated 30 minutes at 25° C., 60 minutes at 37° C.; sigmoidal fit; read-out: Uch-L3 (Inhibition of cysteine protease activities). How it is done: Uch-L3 was diluted in USP buffer (50 mM Tris HCl; 0.5 mM EDTA; 5 mM DTT; 0.01% Triton X-100; Bovine Serum Albumin 0.05 mg.ml^−1 pH7.6). Compounds stocks (100 mM) were stored at −20° C. in DMSO. Compounds were tested at the following final concentrations: 100 μM; 33.3 μM; 11.1 μM: 3.7 μM; 1.23 μM; 412 nM; 137 nM; 45.7 nM; 15.2 nM; 5 nM.
Reactions were performed as duplicates in Black LJL 96 well plates (HE microplates; Molecular Devices; 20 μl final reaction volume). The substrate concentration for Uch-L3 was 400 nM Ub-AMC (Boston Biochem). The concentration of the enzyme (Uch-L3) in specificity assays was 13 pM. The concentrations were determined in order to perform specificity assays under initial velocities at fixed substrate concentration. Compounds were pre-incubated with enzymes for 30 minutes at 25° C. Reactions were initiated by addition of substrate to the plates containing the enzymes (+/−compounds) diluted in assay buffer. Reactions were incubated for 60 minutes at 37° C. Reactions were stopped by adding acetic acid (100 mM final). Readings were performed on a Pherastar Fluorescent Reader (BMG). δ Emission 380 nm; δ Excitation=460 nm. Data (mean values +/− standard deviation) were analyzed as % of control (no compound) and plotted as percentage versus the Log of the compound concentration using GraphPad (Prism). Data were fitted to a sigmoidal model (variable slope).

In the next test the target is T2, MBP-SENP1 (Homo sapiens, UniProt Q9P0U3).
T2 construct: made in house; host or cells: E. coli BL21
T2 sequence (Q9P0U3 1-644): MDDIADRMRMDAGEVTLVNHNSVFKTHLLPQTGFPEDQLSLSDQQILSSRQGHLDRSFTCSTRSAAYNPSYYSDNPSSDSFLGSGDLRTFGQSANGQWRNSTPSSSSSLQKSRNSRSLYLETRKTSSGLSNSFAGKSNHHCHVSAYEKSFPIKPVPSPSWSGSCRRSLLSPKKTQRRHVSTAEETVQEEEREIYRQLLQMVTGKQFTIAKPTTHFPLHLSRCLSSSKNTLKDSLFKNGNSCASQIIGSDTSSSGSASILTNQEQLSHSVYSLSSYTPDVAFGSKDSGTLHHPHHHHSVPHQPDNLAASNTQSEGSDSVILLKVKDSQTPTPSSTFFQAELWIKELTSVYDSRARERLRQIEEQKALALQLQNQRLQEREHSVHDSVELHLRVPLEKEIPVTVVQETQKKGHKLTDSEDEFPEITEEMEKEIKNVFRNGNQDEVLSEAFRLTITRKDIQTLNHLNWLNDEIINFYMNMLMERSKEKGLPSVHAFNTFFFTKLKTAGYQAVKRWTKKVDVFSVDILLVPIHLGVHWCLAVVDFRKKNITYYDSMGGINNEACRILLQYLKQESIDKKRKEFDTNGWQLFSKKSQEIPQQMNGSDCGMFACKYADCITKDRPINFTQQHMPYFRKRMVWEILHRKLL
Nature of the test: SENP1 Activity Assay. The conditions noted are these: 200 nM SUMO-AMC; 1.8 nM enzyme; pre-incubated 30 minutes at 25° C., 60 minutes at 37° C.; sigmoidal fit; read-out: SENP1 (Inhibition of cysteine protease activities). Format: biochemical. How it is done:
The cDNA encoding SENP1 was obtained by PCR amplification from placenta mRNA. SENP1 cDNA was subcloned by PCR into a bacterial expression vector (pMAL-C2X; New England BioLabs, Inc). The sequence was ascertained by sequencing of the entire open reading frame. pMAL-C2-SENP1 was transformed into BL21 cells and grown in LB-ampicillin medium supplemented with glucose (2 g.l^−1). Fusion protein expression was induced by IPTG (0.5 mM). Bacterial cell lysates were harvested and lyzed in lysis buffer (Tris HCl 20 mM pH7.4; 1 mM EDTA; 200 mM NaCl; 0.5% Triton X-100; 10% glycerol; Protease Inhibitor Cocktail) followed by sonication. Proteins were affinity purified on amylose affinity resin (New England BioLabs, Inc). Bound materials were extensively washed in wash buffer (20 mM Tris HCl pH7.4; 200 mM NaCl; 1 mM EDTA; 0.5% Triton X-100; 10% glycerol) and eluted from the resin in 10 mM maltose-containing wash buffer. Proteins were dialyzed in dialysis buffer (Tris HCl pH 7.6 20 mM; NaCl 200 mM; DTT 1 mM; EDTA 1 mM; 10% Glycerol). Proteins purifications were analyzed on 4-12% NuPAGE (Invitrogen).
MBP-SENP1 was diluted in SENP1 buffer (50 mM Tris HCl; 0.5 mM EDTA; 5 mM DTT; 0.01% Triton X-100; Bovine Serum Albumin 0.05 mg.ml^−1 pH7.6). Compounds stocks (100 mM) were stored at −20° C. in DMSO. Compounds were tested at the following final concentrations: 100 μM; 33.3 μM; 11.1 μM; 3.7 μM; 1.23 μM; 412 nM; 137 nM; 45.7 nM; 15.2 nM; 5 nM.
Reactions were performed as duplicates in Black LJL 96 well plates (HE microplates; Molecular Devices; 20 μl final reaction volume). The substrate concentration for SENP1 was 200 nM SUMO-AMC (Chem. Biol., 2003, 10, p. 837-846) (Boston Biochem). The concentration of the enzyme (SENP1) in specificity assays was 1.8 nM. The concentrations were determined in order to perform specificity assays under initial velocities at fixed substrate concentration. Compounds were pre-incubated with enzymes for 30 minutes at 25° C. Reactions were initiated by addition of substrate to the plates containing the enzymes (+/− compounds) diluted in assay buffer. Reactions were incubated for 60 minutes at 37° C. Reactions were stopped by adding acetic acid (100 mM final). Readings were performed on a Pherastar Fluorescent Reader (BMG). λ Emission 380 nm; λ Excitation=460 nm. Data (mean values +/− standard deviation) were analyzed as % of control (no compound) and plotted as percentage versus the Log of the compound concentration using GraphPad (Prism). Data were fitted to a sigmoidal model (variable slope).

Results on 24 compounds are retold here after US7462615B2, “Inhibitors of cysteine proteases, the pharmaceutical compositions thereof and their therapeutic applications” (Hybrigenics SA, priority 2005, dated 2008).

As for `COCc1nnc2nc3c(nn12)-c1ccccc1C3=O` [Example 1i/B, 3-Methoxymethyl-1,2,3a, 4,10-pentaaza-cyclopenta[b]fluoren-9-one], the IC50 at Uch-L3 amounted to 202 nM; on MBP-SENP1 it was 1090 nM.
For `CCc1nnc2nc3c(nn12)C(=O)c1ccccc1-3` [Example 1d/A, 1-Ethyl-2,3,4,10,10a-pentaaza-cyclopenta[b]fluoren-9-one], the IC50 at Uch-L3 was 430 nM; at MBP-SENP1 it was over 100000 nM.
Turning to `CC(C)Cc1nnc2nc3c(nn12)C(=O)c1ccccc1-3` [Example 1g/A, 1-Isobutyl-2,3,4,10,10a-pentaaza-cyclopenta[b]fluoren-9-one], the results for the IC50 on Uch-L3 and at MBP-SENP1 were 636 nM and over 100000 nM, respectively.
Turning to `Cc1nnc2nc3c(nn12)-c1ccccc1C3=O` [Example 1b/B, 3-Methyl-1,2,3a,4,10-pentaaza-cyclopenta[b]fluoren-9-one], the figures for the IC50 on Uch-L3 and at MBP-SENP1 were 143 nM and 706 nM, respectively.
As to `O=C1c2ccccc2-c2nc3nnc(C4CC4)n3nc21` [Example 1j/A, 1-Cyclopropyl-2,3,4,10,10a-pentaaza-cyclopenta[b]fluoren-9-one], the IC50 on Uch-L3 was 1900 nM; on MBP-SENP1, over 100000 nM.
In the case of `Cc1nnc2nc3c(nn12)-c1ccc(Cl)cc1C3=O` [Example 3/B, 7-Chloro-3-methyl-1,2,3a, 4,10-pentaaza-cyclopenta[b]fluoren-9-one], the figures for the IC50 on Uch-L3 and on MBP-SENP1 were 71 nM and 855 nM, respectively.
In the case of `Cc1nnc2nc3c(nn12)C(=O)c1ccccc1-3` [Example 1b/A, 1-Methyl-2,3,4,10,10a-pentaaza-cyclopenta[b]fluoren-9-one], the IC50 at Uch-L3 is 516 nM.
In the case of `O=C1c2ccccc2-c2nn3c(C4CC4)nnc3nc21` [Example 1j/B, 3-Cyclopropyl-1,2,3a,4,10-pentaaza-cyclopenta[b]fluoren-9-one], the figures for the IC50 at Uch-L3 and on MBP-SENP1 were 55 nM and 299 nM, respectively.
On to `O=C1c2ccccc2-c2nn3c(Cc4ccccc4)nnc3nc21` [Example 1k/B, 3-Benzyl-1,2,3a,4,10-pentaaza-cyclopenta[b]fluoren-9-one], for which the IC50 on Uch-L3 was determined as 164 nM; on MBP-SENP1, 1210 nM.
On to `O=C1c2ccccc2-c2nc3nnc(Cc4ccccc4)n3nc21` [Example 1k/A, 1-Benzyl-2,3,4,10,10a-pentaaza-cyclopenta[b]fluoren-9-one], for which the results for the IC50 on Uch-L3 and on MBP-SENP1 were 598 nM and over 100000 nM, respectively.
As to `O=C1c2ccccc2-c2nc3nn(Cc4ccccc4)nc3nc21` [Example 4b, 2-Benzyl-2H-1,2,3,4,10-pentaaza-cyclopenta[b]fluoren-9-one], the IC50 at Uch-L3 came out at 7800 nM.
With `CCCc1nnc2nc3c(nn12)-c1ccccc1C3=O` [Example 1e/B, 3-Propyl-1,2,3a, 4,10-pentaaza-cyclopenta[b]fluoren-9-one], the results for the IC50 at Uch-L3 and on MBP-SENP1 were 168 nM and 694 nM, respectively.
Take `O=C1c2ccccc2-c2nc3nnc(CO)n3nc21` [Example 1h/A, 1-Hydroxymethyl-2,3,4,10,10a-pentaaza-cyclopenta[b]fluoren-9-one]: on Uch-L3, the IC50 came to 390 nM.
For the compound `Nc1nnc2nc3c(nn12)-c1ccccc1C3=O` [Example 1c/B, 3-Amino-1,2,3a,4,10-pentaaza-cyclopenta[b]fluoren-9-one], the IC50 at Uch-L3 worked out at 133 nM; at MBP-SENP1, 731 nM.
In the case of `CCCCc1nnc2nc3c(nn12)-c1ccccc1C3=O` [Example 1f/B, 3-Butyl-1,2,3a,4,10-pentaaza-cyclopenta[b]fluoren-9-one], the IC50 on Uch-L3 was determined as 91 nM; on MBP-SENP1, 229 nM.
Turning to `CCCc1nnc2nc3c(nn12)C(=O)c1ccccc1-3` [Example 1e/A, 1-Propyl-2,3,4,10,10a-pentaaza-cyclopenta[b]fluoren-9-one], the IC50 at Uch-L3 worked out at 1270 nM; on MBP-SENP1, 5880 nM.
As for `Cn1nc2nc3c(nc2n1)-c1ccccc1C3=O` [Example 4a, 2-Methyl-2H-1,2,3,4,10-pentaaza-cyclopenta[b]fluoren-9-one], the IC50 at Uch-L3 came out at 3400 nM.
As for `O=C1c2ccccc2-c2nn3c(CO)nnc3nc21` [Example 1h/B], the results for the IC50 on Uch-L3 and at MBP-SENP1 were 158 nM and 1020 nM, respectively.
With `CCCCc1nnc2nc3c(nn12)C(=O)c1ccccc1-3` [Example 1f/A, 1-Butyl-2,3,4,10,10a-pentaaza-cyclopenta[b]fluoren-9-one], the IC50 was 364 nM at Uch-L3 and over 100000 nM at MBP-SENP1.
The corresponding values for `COCc1nnc2nc3c(nn12)C(=O)c1ccccc1-3` [Example 1i/A, 1-Methoxymethyl-2,3,4,10,10a-pentaaza-cyclopenta[b]fluoren-9-one] are 261 nM and 22100 nM.
Turning to `CC(C)Cc1nnc2nc3c(nn12)-c1ccccc1C3=O` [Example 1g/B, 3-Isobutyl-1,2,3a,4,10-pentaaza-cyclopenta[b]fluoren-9-one], the IC50 at Uch-L3 stood at 183 nM; on MBP-SENP1, 954 nM.
The matching figures for “6-(7)-Chloro-1-methyl-2,3,4,10,10a-pentaaza-cyclopenta[b]fluoren-9-one [Example 3/A]”: 323 nM and over 100000 nM.
For the compound `Nc1nnc2nc3c(nn12)C(=O)c1ccccc1-3` [Example 1c/A, 1-Amino-2,3,4,10,10a-pentaaza-cyclopenta[b]fluoren-9-one], on Uch-L3, the IC50 came to 860 nM.
Take `CCc1nnc2nc3c(nn12)-c1ccccc1C3=O` [Example 1d/B, 3-Ethyl-1,2,3a, 4,10-pentaaza-cyclopenta[b]fluoran-9-one]: the IC50 on Uch-L3 amounted to 95 nM; on MBP-SENP1, 415 nM.
